Data published in US12617818B2, “Compositions and methods for modulating myosin subfragment-2 coiled coil stability and methods for using them” (UNIVERSITY OF NORTH TEXAS, priority 2020, dated 2026).
Values joined by “and” are separate entries in the source; they are usually repeats but may differ in a detail not shown here. Identical values can stand only once.

How the values were obtained:
[1] = molecular target: T1, cardiac muscle myosin S2 mutant peptide E924K (MYH7) (Homo sapiens, UniProt P12883, E924K); test: FRET of E924K mutant cardiac myosin S2 peptide dimer with stabilizer; format: binding
T1 construct: cardiac muscle myosin S2 peptides region 921 to 939; host or cells: chemical synthesis
Source text: This mutation also causes mechanical instability and unstable coiled coil. Sequence of this mutation was obtained using PDB. A 19 residue peptide of this region was chemically synthesized. Generated amino acid sequence used is as follow: • E924K: NH2-[…]—COOH (SEQ ID NO:9)
Resonance energy probes (donor and acceptor) were covalently attached to synthetic myosin S2 peptides of cardiac muscle, E930del cardiac muscle, E924K cardiac muscle, smooth muscle, and skeletal muscle (Aboonasrshiraz, N., 2020).
Acceptor probe was conjugated to muscle myosin S2 peptides at N-terminus. Muscle myosin S2 peptides were dissolved in 20 mM HEPES buffer at pH 8.0. And FITC was dissolved in few drops of N, N dimethyl formamide. Lastly, FITC and muscle myosin S2 peptide was reacted together in 1 to 1 molar ratio and was let to react for 120 minutes at room temperature. The FITC conjugated S2 peptides were purified using […]. […]
In FRET assay, Fluorescein Isothiocyanate (FITC) functioned as fluorescent acceptor probe and Terbium Diethylene Triamine Pentaacetic Acid-Cytosine (Lanthanide-DTPA-Cytosine) functioned as donor probe. […] Lifetime of donor probe was measured in milliseconds.
E924K and Edel930; the myosin S2 HCM mutants, form unstable dimers. […] The calculated separation distance in presence of the stabilizer peptide was 3.65 nm. […]

[2] = test system: human cardiac myosin S2 peptide; test: Competitive ELISA (cELISA) against polyclonal anti-S2 antibody; format: binding; conditions: low-high-low OD trend
Method: Phosphate buffer saline (PBS) contained 0.14 M sodium chloride, 2.7 mM potassium chloride, 1.5 mM potassium phosphate monobasic, and 8.1 mM sodium phosphate dibasic with pH 7.4. Detergent buffer was made with 0.05% triton X-100 in PBS, blocking buffer was made with 3% powdered milk in detergent buffer. Assay buffer contained 100 mM potassium phosphate dibasic, 100 mM potassium phosphate monobasic, 1 M potassium chloride and 10 mM magnesium chloride with pH 7.0. Stocks of primary antibody (polyclonal antibody anti-S2), rabbit skeletal myosin, human cardiac myosin S2 peptide, stabilizer and destabilizer peptide. Secondary antibody conjugated with alkaline phosphatase was anti-guinea pig immunoglobulin G (IgG)-alkaline phosphatase (Sigma-Aldrich, catalog number A5062) produced in goat and isolated by affinity chromatography. Substrate was 5-Bromo-4-chloro-3-indolyl phosphate (BCIP) tablets dissolved in 10 ml of distilled water per tablet and 96 well microtiter plate.
Competitive Enzyme Linked Immunosorbent Assay (cELISA) is a classical immunochemical test to validate the binding efficiency and specificity in lower molar concentrations (Yorde et al., 1976; Voller et al., 1978; Walker, J. M. 1996). In this assay the polyclonal antibody anti-S2 raised against single alpha helix of myosin S2 would be used to compete with stabilizer or destabilizer peptide to bind myosin S2 in rabbit skeletal myosin molecule as well as small human cardiac myosin S2 peptide. This cELISA, thus have two molecules polyclonal anti-S2 and stabilizer peptide which have two binding sites one on rabbit skeletal myosin and the other one being on small human cardiac myosin S2. Since both polyclonal anti-S2 and stabilizer peptide were designed against human β-cardiac myosin S2 they both would have a stronger affinity towards the smaller human β-cardiac myosin S2 peptide against the myosin S2 on rabbit skeletal myosin.
To test the binding specificity and efficiency of stabilizer or destabilizer peptide the following setup was used. Start of the setup would be to coat the wells with rabbit skeletal myosin molecule and add appropriate amount human cardiac myosin S2 peptide that would bind the primary polyclonal anti-S2 antibody and when washed there won't be enough primary polyclonal anti-S2 antibody to bind myosin S2 of rabbit skeletal myosin adsorbed on the wells. When alkaline phosphatase conjugated secondary antibody is added on to the wells, it won't have enough or none primary polyclonal anti-S2 antibody to bind. After addition of color developing BCIP substrate to the wells it would lead to low or no color development leading to lower optical density (OD). […]

[3] = test system: rabbit skeletal myofibrils; test: Myofibrillar contractility assay (incubated myofibrils, 1 mM ATP); format: biochemical

## C[C@H](NC(=O)[C@H](CCCCN)NC(=O)[C@H](Cc1ccccc1)NC(=O)[C@H](CCCCN)NC(=O)[C@H](CCCCN)NC(=O)[C@H](CCCCN)NC(=O)[C@H](CCCCN)NC(=O)[C@H](CCCCN)NC(=O)[C@H](CCCCN)NC(=O)[C@H](CCCCN)NC(=O)[C@@H](N)CCCCN)C(=O)N[C@@H](CCCCN)C(=O)N[C@@H](CCCCN)C(=O)N[C@@H](CCCCN)C(=O)N[C@@H](CCCCN)C(=O)N[C@@H](CCCCN)C(=O)N[C@@H](CCCCN)C(=O)O [Stabilizer]
[1]
  TD (donor lifetime without acceptor): 1.94E−03

## CSCC[C@H](NC(=O)[C@H](CCC(=O)O)NC(=O)[C@H](CCCNC(=N)N)NC(=O)[C@H](CCC(=O)O)NC(=O)[C@H](CC(=O)O)NC(=O)[C@H](CCC(=O)O)NC(=O)[C@H](CC(C)C)NC(=O)[C@H](CCCNC(=N)N)NC(=O)[C@H](CCC(=O)O)NC(=O)[C@H](CC(N)=O)NC(=O)[C@H](CCSC)NC(=O)[C@@H](N)CCC(=O)O)C(=O)N[C@@H](CCCCN)C(=O)N[C@@H](C)C(=O)N[C@@H](CCC(=O)O)C(=O)N[C@@H](CC(C)C)C(=O)N[C@H](C(=O)N[C@@H](C)C(=O)N[C@@H](CCCCN)C(=O)O)[C@@H](C)O [Destabilizer]
[2]
  cross specificity to human cardiac myosin S2 and rabbit skeletal myosin S2: cross specific
[3]
  concentration above which percentage contraction saturated: above 40 nM
[3]; from percentage contraction vs concentration, listed as destabilizer peptide, read-out: binding efficiency (Kd) to myofibrils
  Kd: 7.88 nM and 7.8 nM
[3]; in presence of destabilizer peptide
  maximum percentage contraction in myofibrils: 43% and 41%
[3]; read-out: effective concentration on percentage of contraction in myofibrils
  EC50: < 10 nM
